# Counter-ions that a name gives are not always drawn.
# Target: human GlyT1c transporter (Homo sapiens (Human), UniProt P48067)
# Assay: Radioligand binding assay using recombinant CHO cell membranes expressing human GlyT1
# Settings: human GlyT1c-expressing CHO cell membranes; read-out: radioligand binding Kiapp
# Text: 2. Radioligand binding assays using recombinant CHO cell membranes expressing human GlyT1: […]
# human GlyT1c transporter, sequence (P48067 whole entry): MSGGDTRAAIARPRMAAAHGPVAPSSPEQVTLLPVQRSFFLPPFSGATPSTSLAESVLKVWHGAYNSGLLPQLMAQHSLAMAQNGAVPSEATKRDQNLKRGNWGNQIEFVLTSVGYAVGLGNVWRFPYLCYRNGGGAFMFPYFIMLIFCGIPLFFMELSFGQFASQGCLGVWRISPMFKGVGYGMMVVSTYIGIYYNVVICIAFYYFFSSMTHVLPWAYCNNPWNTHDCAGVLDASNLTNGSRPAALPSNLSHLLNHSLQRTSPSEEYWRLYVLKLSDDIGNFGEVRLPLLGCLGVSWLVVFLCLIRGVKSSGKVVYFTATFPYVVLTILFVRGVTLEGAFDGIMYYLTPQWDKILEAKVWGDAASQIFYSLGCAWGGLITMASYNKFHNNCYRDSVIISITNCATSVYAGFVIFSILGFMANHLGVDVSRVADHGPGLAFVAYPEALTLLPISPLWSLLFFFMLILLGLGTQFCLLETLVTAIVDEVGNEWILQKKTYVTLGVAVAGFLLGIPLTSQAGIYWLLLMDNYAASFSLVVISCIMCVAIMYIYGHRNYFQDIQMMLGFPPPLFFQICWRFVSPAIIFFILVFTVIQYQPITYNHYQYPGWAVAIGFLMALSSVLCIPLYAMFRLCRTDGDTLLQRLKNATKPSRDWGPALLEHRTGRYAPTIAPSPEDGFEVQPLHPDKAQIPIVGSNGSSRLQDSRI
row,Ki [nM],Structure (SMILES)
1,≤ 100,"CCCS(=O)(=O)NCCCc1ccc2c(c1)C(Cc1cccc(F)c1)C(N)CC2 (stereo not drawn) [Example 209, N-{3-[7-Amino-8-(3-fluorobenzyl)-5,6,7,8-tetrahydronaphthalen-2-yl]propyl}propane-1-sulfonamide hydrochloride]"
2,≤ 100,"NC1CCc2ccc(CCCNS(=O)(=O)CC3CC3)cc2C1Cc1cccc(F)c1 (stereo not drawn) [Example 210, N-{3-[7-Amino-8-(3-fluorobenzyl)-5,6,7,8-tetrahydronaphthalen-2-yl]propyl}-1-cyclopropylmethanesulfonamide hydrochloride]"
3,≤ 1000,"CCCS(=O)(=O)NCCCc1ccc2c(c1)C(Cc1ccccc1Cl)C(N)CC2 (stereo not drawn) [Example 211, N-{3-[7-Amino-8-(2-chlorobenzyl)-5,6,7,8-tetrahydronaphthalen-2-yl]propyl}propane-1-sulfonamide hydrochloride]"
4,≤ 1000,"NC1CCc2ccc(CCCNS(=O)(=O)CC3CC3)cc2C1Cc1ccccc1Cl (stereo not drawn) [Example 212, N-{3-[7-Amino-8-(2-chloro-benzyl)-5,6,7,8-tetrahydro-naphthalen-2-yl]-propyl}-C-cyclopropyl-methanesulfonamide hydrochloride]"
5,≤ 100,"CCCS(=O)(=O)NCCCc1ccc2c(c1)C(Cc1ccc(F)cc1)C(N)CC2 (stereo not drawn) [Example 213, N-{3-[7-Amino-8-(4-fluorobenzyl)-5,6,7,8-tetrahydronaphthalen-2-yl]propyl}propane-1-sulfonamide hydrochloride]"
6,≤ 10000,"CCCS(=O)(=O)NCCCc1ccc2c(c1)C(Cc1cccc(F)c1)C(NC(C)=O)CC2 (stereo not drawn) [Example 214, N-[1-(3-Fluorobenzyl)-7-{3-[(propylsulfonyl)amino]propyl}-1,2,3,4-tetrahydronaphthalen-2-yl]acetamide]"
7,≤ 10000,"CCCS(=O)(=O)NCCCc1ccc2c(c1)C(Cc1ccc(F)cc1)C(NC(C)=O)CC2 (stereo not drawn) [Example 215, N-[1-(4-Fluorobenzyl)-7-{3-[(propylsulfonyl)amino]propyl}-1,2,3,4-tetrahydronaphthalen-2-yl]acetamide]"
8,≤ 10000,"CC(=O)NC1CCc2ccc(CCCNS(=O)(=O)CC3CC3)cc2C1Cc1ccccc1 (stereo not drawn) [Example 216, N-[1-Benzyl-7-(3-{[(cyclopropylmethyl)sulfonyl]amino}propyl)-1,2,3,4-tetrahydronaphthalen-2-yl]acetamide]"
9,≤ 10000,"CCCS(=O)(=O)NCCCc1ccc2c(c1)C(Cc1ccccc1)C(NC(C)=O)CC2 (stereo not drawn) [Example 217, N-[1-Benzyl-7-{3-[(propylsulfonyl)amino]propyl}-1,2,3,4-tetrahydronaphthalen-2-yl]acetamide]"
10,≤ 10000,"CC(=O)NC1CCc2ccc(CCCNS(=O)(=O)CC3CC3)cc2C1Cc1cccc(F)c1 (stereo not drawn) [Example 218, N-[7-(3-{[(Cyclopropylmethyl)sulfonyl]amino}propyl)-1-(3-fluorobenzyl)-1,2,3,4-tetrahydronaphthalen-2-yl]acetamide]"
11,≤ 100,"CCCS(=O)(=O)NCCCc1ccc2c(c1)C(Cc1cccc(F)c1)C(NCC)CC2 (stereo not drawn) [Example 219, Propane-1-sulfonic acid {3-[7-ethylamino-8-(3-fluoro-benzyl)-5,6,7,8-tetrahydronaphthalen-2-yl]-propyl}-amide hydrochloride]"
12,≤ 1000,"CCCS(=O)(=O)NCCCc1ccc2c(c1)C(Cc1ccc(F)cc1)C(NCC)CC2 (stereo not drawn) [Example 220, N-{3-[7-(Ethylamino)-8-(4-fluorobenzyl)-5,6,7,8-tetrahydronaphthalen-2-yl]propyl}propane-1-sulfonamide hydrochloride]"
13,≤ 100,"CCNC1CCc2ccc(CCCNS(=O)(=O)CC3CC3)cc2C1Cc1cccc(F)c1 (stereo not drawn) [Example 221, C-Cyclopropyl-N-{3-[7-ethylamino-8-(3-fluoro-benzyl)-5,6,7,8-tetrahydro-naphthalen-2-yl]-propyl}-methanesulfonamide hydrochloride]"
14,≤ 1000,"CCCS(=O)(=O)NCCCc1ccc2c(c1)C(Cc1ccccc1Cl)C(NCC)CC2 (stereo not drawn) [Example 222, Propane-1-sulfonic acid {3-[8-(2-chloro-benzyl)-7-ethylamino-5,6,7,8-tetrahydronaphthalen-2-yl]-propyl}-amide hydrochloride]"
15,≤ 100,"CCCS(=O)(=O)NCCCc1ccc2c(c1)C(Cc1ccccc1)C(NCC)CC2 (stereo not drawn) [Example 223, N-{3-[8-Benzyl-7-(ethylamino)-5,6,7,8-tetrahydronaphthalen-2-yl]propyl}propane-1-sulfonamide hydrochloride]"
16,≤ 100,"CCNC1CCc2ccc(CCCNS(=O)(=O)CC3CC3)cc2C1Cc1ccccc1 (stereo not drawn) [Example 224, N-{3-[8-Benzyl-7-(ethylamino)-5,6,7,8-tetrahydronaphthalen-2-yl]propyl}-1-cyclopropylmethanesulfonamide hydrochloride]"
17,≤ 100,"CCCS(=O)(=O)NCCCc1ccc2c(c1)C(Cc1ccc(F)c(F)c1)C(NCC)CC2 (stereo not drawn) [Example 225, N-{3-[8-(3,4-Difluorobenzyl)-7-(ethylamino)-5,6,7,8-tetrahydronaphthalen-2-yl]propyl}propane-1-sulfonamide trifluoroacetate]"

row,Ki [nM],Structure (SMILES)
1,≤ 100,"CCNC1CCc2ccc(CCCNS(=O)(=O)CC3CC3)cc2C1Cc1ccc(F)c(F)c1 (stereo not drawn) [Example 226, 1-Cyclopropyl-N-{3-[8-(3,4-difluorobenzyl)-7-(ethylamino)-5,6,7,8-tetrahydronaphthalen-2-yl]propyl}methanesulfonamide trifluoroacetate]"
2,≤ 100,"CCCS(=O)(=O)N(C)CCCc1ccc2c(c1)C(Cc1cccc(F)c1)C(N)CC2 (stereo not drawn) [Example 227, N-{3-[7-Amino-8-(3-fluorobenzyl)-5,6,7,8-tetrahydronaphthalen-2-yl]propyl}-N-methylpropane-1-sulfonamide hydrochloride]"
3,≤ 100,"CN(CCCc1ccc2c(c1)C(Cc1ccccc1Cl)C(N)CC2)S(=O)(=O)CC1CC1 (stereo not drawn) [Example 228, N-{3-[7-Amino-8-(2-chloro-benzyl)-5,6,7,8-tetrahydro-naphthalen-2-yl]-propyl}-C-cyclopropyl-N-methyl-methanesulfonamide hydrochloride]"
4,≤ 10,"CN(CCCc1ccc2c(c1)C(Cc1cccc(F)c1)C(N)CC2)S(=O)(=O)CC1CC1 (stereo not drawn) [Example 230, N-{3-[7-Amino-8-(3-fluorobenzyl)-5,6,7,8-tetrahydronaphthalen-2-yl]propyl}-1-cyclopropylN-methylmethanesulfonamide hydrochloride]"
5,≤ 100,"CCCS(=O)(=O)N(C)CCCc1ccc2c(c1)C(Cc1ccc(F)cc1)C(N)CC2 (stereo not drawn) [Example 232, N-{3-[7-Amino-8-(4-fluorobenzyl)-5,6,7,8-tetrahydronaphthalen-2-yl]propyl}-N-methylpropane-1-sulfonamide hydrochloride]"
6,≤ 100,"CN(CCCc1ccc2c(c1)C(Cc1ccc(Cl)cc1)C(N)CC2)S(=O)(=O)CC1CC1 (stereo not drawn) [Example 233, N-{3-[7-Amino-8-(4-chlorobenzyl)-5,6,7,8-tetrahydronaphthalen-2-yl]propyl}-1-cyclopropylN-methylmethanesulfonamide hydrochloride]"
7,≤ 100,"CCCS(=O)(=O)N(C)CCCc1ccc2c(c1)C(Cc1ccc(Cl)cc1)C(N)CC2 (stereo not drawn) [Example 234, N-{3-[7-Amino-8-(4-chlorobenzyl)-5,6,7,8-tetrahydronaphthalen-2-yl]propyl}-N-methylpropane-1-sulfonamide hydrochloride]"
8,≤ 10,"NC1CCc2ccc(OCCNS(=O)(=O)CC3CC3)cc2C1Cc1cccc(F)c1 (stereo not drawn) [Example 235, N-(2-{[7-Amino-8-(3-fluorobenzyl)-5,6,7,8-tetrahydronaphthalen-2-yl]oxy}ethyl)-1-cyclopropylmethanesulfonamide hydrochloride]"
9,≤ 1000,"CCOC(=O)NC1CCc2ccc(OCCNS(=O)(=O)c3ccn(C)c3)cc2C1Cc1cc(F)cc(F)c1 (stereo not drawn) [Example 236, Ethyl[1-(3,5-difluorobenzyl)-7-(2-{[(1-methyl-1H-pyrrol-3-yl)sulfonyl]amino}ethoxy)-1,2,3,4-tetrahydronaphthalen-2-yl]carbamate]"
10,≤ 10,"CNC1CCc2ccc(OCCNS(=O)(=O)CC3CC3)cc2C1Cc1cc(F)cc(F)c1 (stereo not drawn) [Example 243, 1-Cyclopropyl-N-(2-{[8-(3,5-difluorobenzyl)-7-(methylamino)-5,6,7,8-tetrahydronaphthalen-2-yl]oxy}ethylmethanesulfonamide hydrochloride]"
11,≤ 10,"CNC1CCc2ccc(OCCNS(=O)(=O)c3ccn(C)c3)cc2C1Cc1cc(F)cc(F)c1 (stereo not drawn) [Example 246, N-(2-{[8-(3,5-Difluorobenzyl)-7-(methylamino)-5,6,7,8-tetrahydronaphthalen-2-yl]oxy}ethyl)-1-methyl-1H-pyrrole-3-sulfonamide hydrochloride]"
12,≤ 10,"CNC1CCc2ccc(OCCNS(=O)(=O)CC3CC3)cc2C1Cc1cccc(F)c1 (stereo not drawn) [Example 247, 1-Cyclopropyl-N-(2-{[8-(3-fluorobenzyl)-7-(methylamino)-5,6,7,8-tetrahydronaphthalen-2-yl]oxy}ethyl)methanesulfonamide hydrochloride]"
13,≤ 10,"Cn1cnc(S(=O)(=O)NCc2ccc3c(c2)C(Cc2ccccc2)C(N2CCC2)CC3)c1 (stereo not drawn) [Example 248, N-{[7-(Azetidin-1-yl)-8-benzyl-5,6,7,8-tetrahydronaphthalen-2-yl]methyl}-1-methyl-1H-imidazole-4-sulfonamide]"
14,≤ 10,"Cn1cc(S(=O)(=O)NCc2ccc3c(c2)C(Cc2ccccc2)C(N2CCC2)CC3)cn1 (stereo not drawn) [Example 250, N-{[7-(Azetidin-1-yl)-8-benzyl-5,6,7,8-tetrahydronaphthalen-2-yl]methyl}-1-methyl-1H-pyrazole-4-sulfonamide]"
15,≤ 100,"Cn1ccc(S(=O)(=O)NCc2ccc3c(c2)C(Cc2ccccc2)C(N2CCC2)CC3)c1 (stereo not drawn) [Example 251, N-{[7-(Azetidin-1-yl)-8-benzyl-5,6,7,8-tetrahydronaphthalen-2-yl]methyl}-1-methyl-1H-pyrrole-3-sulfonamide trifluoroacetate]"
16,≤ 100,"Cn1cnc(S(=O)(=O)NCc2ccc3c(c2)C(Cc2cccc(F)c2)C(N2CCC2)CC3)c1 (stereo not drawn) [Example 256, N-{[7-(Azetidin-1-yl)-8-(3-fluorobenzyl)-5,6,7,8-tetrahydronaphthalen-2-yl]methyl}-1-methyl-1H-imidazole-4-sulfonamide hydrochloride]"
